Data on one compound can be found in patent publication US10327423B2, “Antimicrobial compounds and compositions, and uses thereof” (Akeso Biomedical, Inc., priority 2014, dated 2019).

The test system of one experiment is C. jejuni NCTC 11168. Description: ELISA of C. jejuni binding to histo-blood group antigens (BgAgs). Further details: species or system Campylobacter jejuni. Conditions: for binding of C. jejuni to Le^b and H-II after growth in medium with Fe-QA: washed away before ELISA, one and four passages. Here is the method:
Binding of C. jejuni NCTC 11168 to the BgAgs (common ABO histo-blood group antigens), Le^b and H-II was measured after growing the bacteria in a medium that has either Fe-QA at 0.34 mM or 3.4 mM. The binding is measured by washing away the Fe-Q containing medium prior to testing the bacteria by ELISA as described below. Binding was measured after one passage and four passages (4 generations) with Fe-QA included in the medium, and compared to a control without Fe-QA.
The ELISA was performed as follows: BSA-BgAg conjugates were obtained from IsoSep, Tullinge, Sweden. Coupling of BgAgs to 96-well plates (NUNC Immobilizer Amino) was carried out by the addition of 100 μl BSA-BgAg (5 μg/ml unless stated otherwise) in sodium carbonate buffer to each well. Plates were incubated at room temperature for 2 h before unbound reagent was removed by washing three times in PBS-T. All wells were blocked by the addition of […] 1% BSA/PBS and incubated for 2 h at room temperature. After further washing in PBS-T, […] of DIG-tagged bacteria (at OD600 of 0.05) were added to each well and incubated overnight at 4° C. Plates were washed three times in PBS-T before […] anti-digoxigenin-POD solution (Roche Diagnostics; 1 in 5000 diluted in 1% BSA/PBS) was added and incubated for 1 h at room temperature. Plates were again vigorously washed in PBS-T and color developed by adding 100 μl ABTS substrate (Roche). Plates were read with an ELISA reader (Biotek EL800) at an absorbance of 405 nm. Specific binding was determined by subtracting the binding of each strain to BSA (typically OD405 0.07-0.09) from the binding to each BSA-BgAg conjugate. Inhibition assays shown in FIG. 4B were carried out as above but after the removal of the blocking solution, DIG-labeled C. jejuni was pre-incubated for 4 h with an Fe-QA solution (0.34 mM) before being added to each well.
A general note: An ELISA detects its analyte on a solid surface through an enzyme-linked reagent.

For the next experiment, the system named is H. pylori strain 17875. Description: Binding of I-125 labelled Le^b to H. pylori (bound/free). Further details: species or system Helicobacter pylori. The settings on record: increasing Fe-QA concentration; pH 7.4. Here is the method: Binding of Le^b to H. pylori strain 17875 at pH 7.4 was assayed by labeling Le^b with radioactive iodine (1-125), mixing the radioactive antigen with H. pylori bacteria, pelletizing the bacteria using a centrifuge, and measuring the radioactivity in the pellet and in the supernatant. Any Le^b that is bound to the bacteria is quantified by the measurement of radioactivity in the pellet. The ratio of the radioactivity in the pellet to the supernatant therefore corresponds to the ratio of Le^b bound by the bacteria to that which remains unbound, expressed as bound/free.

Experiment [1] in a line: Treatment of an acne patient. Type of experiment: in vivo, human. Here is the method: A patient was treated continuously for 30 days by applying a solution of ferric quinate (340 μM) to their acne vulgarism (“acne”) once each day. Within 5 days of the start of treatment, their acne, which had not previously responded to treatment with antibiotics, began to show signs of healing.

The subject of experiment [2] is bacterial flora present in the mouth. The experiment can be described thus: Biofilm formation on extracted human teeth (CEPLAC staining). Type of experiment: cell-based. Conditions: FeQ 340 μM; 48 hours of culturing. The procedure: Molar teeth were extracted from human patients, and mouth swabs taken from each patient to obtain samples of each patient's bacterial flora present in the mouth. The mouth swabs were cultured in the laboratory using LB media in order to grow bacterial populations ordinarily present in the mouth of each patient. The extracted teeth were washed and brushed extensively using PBS buffer and ethanol. Each patient's tooth was then placed in the bacterial culture prepared from that patient's bacterial flora sample, and cultured aerobically for 24 hours in LB media. The teeth were then stained with CEPLAC™ (Manx Healthcare Ltd, Warwick, UK), and washed three times with PBS-Tween (50 mL) to determine if biofilm had been formed on the teeth.
All teeth stained red indicating the presence of biofilm on the teeth after just 24 hours. The same teeth were then cleaned using PBS buffer and ethanol, and the procedure repeated except with 48 hours of culturing in the presence of FeQ (340 μM).

On to `O=C1[O][Fe]23([O]C(=O)[C@]4(C[C@@H](O)[C@H](O)[C@H](O)C4)[O]2)([O]C(=O)[C@]2(C[C@@H](O)[C@H](O)[C@H](O)C2)[O]3)[O][C@@]12C[C@@H](O)[C@H](O)[C@H](O)C2` [FeQ, a complex of quinic acid with Fe III], for which the “binding of C. jejuni to Le^b and H-II after growth in medium with Fe-QA” value is listed as “statistically significant decrease” with C. jejuni NCTC 11168 (Fe-QA 0.34 mM in medium) and “marked decrease in binding” in the experiment with C. jejuni NCTC 11168 (Fe-QA 3.4 mM in medium). Also, the “inhibition of binding of C. jejuni 11168 to BgAgs (Core-I, Core-II, H-I, H-II, Leb, Ley, Lex)” value in the experiment on C. jejuni NCTC 11168 (bacteria pre-incubated 4 h with Fe-QA 0.34 mM) is “significant inhibition of binding”. Also, the “competitive inhibition of Le^b binding to H. pylori (bound/free Le^b)” value in the experiment with H. pylori strain 17875 is recorded as “increasingly inhibits binding”. In addition, in experiment [1] (ferric quinate solution 340 μM once each day), the “state of acne after treatment for 30 days” value is given as “completely healed”. Also, in experiment [1] (ferric quinate solution 340 μM once each day for 30 days), the “recurrence of acne after discontinuation of treatment for over one year” value was “did not recur”. The “biofilm on human teeth (red CEPLAC staining)” value in experiment [2] is “no teeth stained red”.
